Results on 1 compound are retold here after patent US20150005347A1, “NITROGEN-CONTAINING HETEROCYCLIC DERIVATIVE HAVING 2-IMINO GROUP AND PEST CONTROL AGENT INCLUDING THE SAME” (MEIJI SEIKA PHARMA CO., LTD., priority 2012, published 2015).

Type in all cases: in vivo
The subject of data set [1] is susceptible populations of Sogatella furcifera. As to the kind of experiment: Soil irrigation test, susceptible populations of Sogatella furcifera. As to the method:
(§1) A rice seedling in pot culture was subjected to soil irrigation treatment with a drug solution of the compound of the present invention at a predetermined concentration, which had been prepared so as to be a 10% acetone water. […] Thereafter, the larvae were left to stand in a thermostatic chamber (16 hours of light period-8 hours of dark period) at 25° C. […] The test was performed in duplicate.
(§2) Mortality of larvae(%)={number of dead larvae/(number of survived larvae+number of dead larvae)}×100
Further, for comparison, the test against a populations of Sogatella furcifera which is highly susceptible to fipronil was performed by the same method as described above, and the results thereof are shown in Table 44.
(§3) In addition, for the origin of test pests, bugs collected within the city of Odawara in 2010 as the drug resistant Sogatella furcifera, and bugs collected within the city of Chigasaki in 1970 and then successively reared indoors for a long time as the susceptible populations of Sogatella furcifera were used.

In data set [2] the test system is Laodelphax striatella exhibiting drug resistance to fipronil. As to the kind of experiment: Soil irrigation test, Laodelphax striatella exhibiting drug resistance to fipronil. Particulars: drug resistant populations. As for the experimental part:
Test Example 20 Pest Control Test of Laodelphax striatella
as §1, §2
(§4) In addition, for the origin of test pests, bugs collected within the Kumamoto prefecture in 2006 as the drug resistant Laodelphax striatella, and bugs successively reared indoors for a long time as the susceptible populations of Laodelphax striatella were used.

The subject of data set [3] is susceptible populations of Laodelphax striatella. As to the kind of experiment: Soil irrigation test, susceptible populations of Laodelphax striatella. As to the method: as §1, §2
Further, for comparison, the test against a populations of Laodelphax striatella which is highly susceptible to fipronil was performed by the same method as described above, and the results thereof are shown in Table 45.
as §4

For data set [4], the system named is Sogatella furcifera exhibiting drug resistance to fipronil. The experiment in a line: Soil irrigation test, Sogatella furcifera exhibiting drug resistance to fipronil. Particulars: drug resistant populations. As for the experimental part:
Test Example 19 Pest Control Test of Sogatella furcifera
as §1, §2, §3

The structures appear in SMILES notation.

As to `N#Cc1nn(-c2c(Cl)cc(C(F)(F)F)cc2Cl)c(N)c1[S+]([O-])C(F)(F)F` (stereo not drawn) [Fipronil], the figures for the “Insecticidal effects against Sogatella furcifera (mortality of larvae %), Susceptible populations six days after the treatment” value in data set [1] (Rate 0.005 mg/pot), in data set [1] (Rate 0.01 mg/pot) and in data set [1] (Rate 0.01 mg/pot as printed in the last line (below 0.005)) were 100%, 100% and 78%, respectively. Further, the “Insecticidal effects against Laodelphax striatella (mortality of larvae %), Drug resistant populations six days after the treatment” value is 76% in data set [2] (Rate 0.02 mg/pot) and 90% in data set [2] (Rate 0.05 mg/pot). Moreover, the “Insecticidal effects against Laodelphax striatella (mortality of larvae %), Susceptible populations six days after the treatment” value amounted to 89% in data set [3] (Rate 0.005 mg/pot) and 100% in data set [3] (Rate 0.01 mg/pot). Besides, the “Insecticidal effects against Sogatella furcifera (mortality of larvae %), Drug resistant populations six days after the treatment” value came out at 40% in data set [4] (Rate 0.01 mg/pot) and 90% in data set [4] (Rate 0.05 mg/pot).
